Assay results reported in US11447475B2, “Isoxazole N-linked carbamoyl cyclohexyl acids as LPA antagonists” (BRISTOL-MYERS SQUIBB COMPANY, priority 2017, dated 2022).

Each compound was assayed against T1, human LPA1 (Homo sapiens, UniProt Q92633) (assay: LPA1 functional antagonist assay (calcium flux)). Details: CHO cells overexpressing human LPA1; inhibition of calcium flux induced by 10 nM LPA; read-out: hLPA1 IC50.
T1 construct: expressed in transfected cells; host or cells: Chinese hamster ovary (CHO) cells
Format: cell-based
Description: The effectiveness of compounds of the present invention as LPA1 inhibitors can be determined in an LPA1 functional antagonist assay as follows:
Chinese hamster ovary cells overexpressing human LPA1 were plated overnight (15,000 cells/well) in poly-D-lysine coated 384-well microplates (Greiner bio-one, Cat #781946) in DMEM/F12 medium (Gibco, Cat #11039). Following overnight culture, cells were loaded with calcium indicator dye (AAT Bioquest Inc, Cat #34601) for 30 minutes at 37° C. The cells were then equilibrated to room temperature for 30 minutes before the assay. Test compounds solubilized in DMSO were transferred to 384 well non-binding surface plates (Corning, Cat #3575) using the Labcyte Echo acoustic dispense and diluted with assay buffer [1×HBSS with calcium/magnesium (Gibco Cat #14025-092), 20 mM HEPES (Gibco Cat #15630-080) and 0.1% fatty acid free BSA (Sigma Cat #A9205)] to a final concentration of 0.5% DMSO. Diluted compounds were added to the cells by FDSS6000 (Hamamatsu) at final concentrations ranging from 0.08 nM to 5 μM. and were then incubated for 20 min at room temperature at which time LPA (Avanti Polar Lipids Cat #857130C) was added at final concentrations of 10 nM to stimulate the cells. […] IC50 values were determined by fitting data to a 4-parameter logistic equation (GraphPad Prism, San Diego Calif.).

T1 sequence (Q92633 whole entry): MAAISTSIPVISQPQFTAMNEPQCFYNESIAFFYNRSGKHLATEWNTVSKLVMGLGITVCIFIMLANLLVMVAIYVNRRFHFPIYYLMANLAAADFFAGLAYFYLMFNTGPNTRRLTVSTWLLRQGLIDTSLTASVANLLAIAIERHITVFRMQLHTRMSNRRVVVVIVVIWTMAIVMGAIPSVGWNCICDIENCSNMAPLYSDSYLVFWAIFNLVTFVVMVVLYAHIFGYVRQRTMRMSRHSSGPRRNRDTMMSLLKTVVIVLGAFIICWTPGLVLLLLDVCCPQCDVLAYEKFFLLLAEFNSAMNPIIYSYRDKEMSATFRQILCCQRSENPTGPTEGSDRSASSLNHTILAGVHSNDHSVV

| Compound | IC50 [nM] |
| --- | --- |
| Cc1nc(-c2onc(C)c2CNS(=O)(=O)Cc2ccccc2)ccc1O[C@H]1CCC[C@H](C(=O)O)C1 [Example 51, (1S,3S)-3-((2-methyl-6-(3-methyl-4-(((phenylmethyl)sulfonamido)methyl) Isoxazol-5-yl)pyridin-3-yl)oxy)cyclohexane-1-carboxylic Acid] | 620 |
| Cc1noc(-c2ccc(O[C@H]3CCC[C@H](C(=O)O)C3)cn2)c1CNC(=O)OCc1cccc(F)c1 [Example 3] | 5 |

Further lines, results first:

| IC50 [nM] | Compound |
| --- | --- |
| 4 | Cc1noc(-c2ccc(O[C@H]3CCC[C@H](C(=O)O)C3)cn2)c1CNS(=O)(=O)CCc1ccccc1 [Example 53, (1S,3S)-3-((6-(3-methyl-4-(((2-phenylethyl)sulfonamido)methyl)isoxazol-5-yl) Pyridin-3-yl)oxy)cyclohexane-1-carboxylic Acid] |
| 27 | Cc1noc(-c2ccc(O[C@H]3CCC[C@H](C(=O)O)C3)cn2)c1CNC(=O)OCc1cc(F)cc(F)c1 [Example 37, (1S,3S)-3-((6-(4-(((((3,5-difluorobenzyl)oxy)carbonyl)amino)methyl)-3-methylisoxazol-5-yl)pyridin-3-yl)oxy)cyclohexane-1-carboxylic Acid] |

Same assay, conditions: read-out: hLPA1 IC50

| Compound | IC50 [nM] |
| --- | --- |
| CCCCOC(=O)NCc1c(C)noc1-c1ccc(O[C@@H]2CCC[C@@H](C(=O)O)C2)cc1 (racemic) [Example 23] | 319 |
| Cc1noc(-c2ccc(O[C@@H]3CCC[C@@H](C(=O)O)C3)cc2)c1CNC(=O)OCc1ccccc1F [Example 19] | 152 |
| Cc1noc(-c2ccc(O[C@@H]3CCC[C@@H](C(=O)O)C3)cc2)c1CNC(=O)OCC(C)C (racemic) [Example 22] | 2130 |
| CCC[C@@H](C)OC(=O)NCc1c(C)noc1-c1ccc(O[C@H]2CCC[C@H](C(=O)O)C2)cn1 [Example 58] | 37 |
| Cc1nc(-c2onc(C)c2CNC(=O)OC(C)C)ccc1O[C@H]1CCC[C@H](C(=O)O)C1 [Example 47] | 30 |
| CCCCOC(=O)NCc1c(C)noc1-c1ccc(O[C@H]2CCC[C@H](C(=O)O)C2)c(C)n1 [Example 42] | 8 |
| Cc1noc(-c2ccc(O[C@@H]3CCC[C@@H](C(=O)O)C3)cc2)c1CNC(=O)OCCC1CC1 [Example 28] | 263 |
| Cc1noc(-c2ccc(O[C@H]3CCC[C@H](C(=O)O)C3)cn2)c1CNC(=O)OCCC1CC1 [Example 62] | 77 |
| Cc1noc(-c2ccc(O[C@H]3CCC[C@H](C(=O)O)C3)cn2)c1NC(=O)O[C@H](C)C1CC1 [Example 34, (1S,3S)-3-((6-(4-((((R)-1-cyclopropylethoxy)carbonyl)amino)-3-methylisoxazol-5-yl)pyridin-3-yl)oxy)cyclohexane-1-carboxylic Acid] | 30 |
| Cc1noc(-c2ccc(O[C@@H]3CCC[C@@H](C(=O)O)C3)cc2)c1CNC(=O)OCC1CCC1 (racemic) [Example 29] | 407 |
| Cc1noc(-c2ccc(O[C@@H]3CCC[C@@H](C(=O)O)C3)cc2)c1CNC(=O)OC(C)C1CC1 (mixture of isomers) [Example 27] | 1140 |
| Cc1noc(-c2ccc(O[C@H]3CCC[C@H](C(=O)O)C3)cn2)c1CNC(=O)CCc1ccccc1 [Example 54, (1S,3S)-3-((6-(3-methyl-4-((3-phenylpropanamido)methyl)isoxazol-5-yl)pyridin-3-yl)oxy)cyclohexane-1-carboxylic Acid] | 255 |
| Cc1noc(-c2cnc(O[C@H]3CCC[C@H](C(=O)O)C3)cn2)c1CNC(=O)OCc1ccccc1 (racemic) [Example 52, (±)-Trans-3-((5-(4-((((benzyloxy)carbonyl)amino)methyl)-3-methyl-isoxazol-5-yl)pyrazin-2-yl)oxy)cyclohexane-1-carboxylic Acid] | 111 |
| Cc1noc(-c2ccc(O[C@H]3CCC[C@H](C(=O)O)C3)cn2)c1CNC(=O)OCC1CC(C)(C)C1 [Example 8] | 5.5 |
| Cc1nc(-c2onc(C)c2CNC(=O)OC(C)(C)C)ccc1O[C@H]1CCC[C@H](C(=O)O)C1 [Example 50, (1S,3S)-3-((6-(4-(((tert-butoxycarbonyl)amino)methyl)-3-methylisoxazol-5-yl)-2-methylpyridin-3-yl)oxy)cyclohexane-1-carboxylic Acid] | 44 |
| CC[C@H](C)COC(=O)NCc1c(C)noc1-c1ccc(O[C@H]2CCC[C@H](C(=O)O)C2)cn1 [Example 61] | 8 |
| CCCOC(=O)NCc1c(C)noc1-c1ccc(O[C@H]2CCC[C@H](C(=O)O)C2)c(C)n1 [Example 41] | 20 |
| CCC(C)COC(=O)NCc1c(C)noc1-c1ccc(O[C@@H]2CCC[C@@H](C(=O)O)C2)cc1 (mixture of isomers) [Example 25] | 96 |
| Cc1noc(-c2ccc(O[C@H]3CCC[C@H](C(=O)O)C3)cn2)c1CN(C)C(=O)OCc1ccccc1 [Example 64] | 14 |
| COCCOC(=O)NCc1c(C)noc1-c1ccc(O[C@H]2CCC[C@H](C(=O)O)C2)c(C)n1 [Example 46] | 275 |
| Cc1noc(-c2ccc(O[C@@H]3CCC[C@@H](C(=O)O)C3)cc2)c1CNC(=O)O[C@H](C)c1ccccc1 (mixture of isomers) [Example 17] | 293 |
| Cc1nc(-c2onc(C)c2CN(C)C(=O)OCc2ccccc2)ccc1O[C@H]1CCC[C@H](C(=O)O)C1 [Example 49, (1S,3S)-3-((6-(4-((((Benzyloxy)carbonyl)(methyl)amino)methyl)-3-methyl-isoxazol-5-yl)-2-methylpyridin-3-yl)oxy)cyclohexanecarboxylic Acid] | 6 |
| Cc1noc(-c2ccc(O[C@H]3CCC[C@H](C(=O)O)C3)cn2)c1CNC(=O)NCc1ccccc1 [Example 35, (1S,3S)-3-((6-(4-((3-benzylureido)methyl)-3-methylisoxazol-5-yl)pyridin-3-yl)oxy)cyclohexane-1-carboxylic Acid] | 229 |

The next lines start with the values.

| IC50 [nM] | Compound |
| --- | --- |
| 11 | Cc1noc(-c2ccc(O[C@H]3CCC[C@H](C(=O)O)C3)cn2)c1CNC(=O)OC1CC(C)(C)C1 [Example 59] |
| 34 | Cc1nc(-c2onc(C)c2CN(C)C(=O)OCC(C)C)ccc1O[C@H]1CCC[C@H](C(=O)O)C1 [Example 40] |
| 46 | CCCCCCOC(=O)NCc1c(C)noc1-c1ccc(O[C@H]2CCC[C@H](C(=O)O)C2)cn1 [Example 36, (1S,3S)-3-((6-(4-((((hexyloxy)carbonyl)amino)methyl)-3-methylisoxazol-5-yl)pyridin-3-yl)oxy)cyclohexane-1-carboxylic Acid] |
| 159 | Cc1noc(-c2ccc(O[C@@H]3CCC[C@@H](C(=O)O)C3)cc2)c1CNC(=O)OCc1ccc(F)cc1 [Example 18] |
| 14 | CCCCOC(=O)NCc1c(C)noc1-c1ccc(O[C@H]2CCC[C@H](C(=O)O)C2)cn1 [Example 65] |
| 63 | Cc1noc(-c2ccc(O[C@H]3CCC[C@H](C(=O)O)C3)cn2)c1CNC(=O)OC1CCCC1 [Example 38] |
| 257 | Cc1noc(-c2ccc(O[C@@H]3CCC[C@@H](C(=O)O)C3)cc2)c1CNC(=O)OCc1cccc(F)c1 (racemic) [Example 21] |
| 23 | CCC[C@H](C)OC(=O)NCc1c(C)noc1-c1ccc(O[C@H]2CCC[C@H](C(=O)O)C2)cn1 [Example 55, (1S,3S)-3-((6-(3-methyl-4-((((((S)-pentan-2-yl)oxy)carbonyl)amino) Methyl) Isoxazol-5-yl)pyridin-3-yl)oxy)cyclohexane-1-carboxylic Acid] |
| 197 | Cc1noc(-c2ccc(O[C@H]3CCC[C@H](C(=O)O)C3)cc2)c1CNC(=O)OCc1cccc(Cl)c1 [Example 11] |
| 244 | Cc1noc(-c2ccc(O[C@@H]3CCC[C@@H](C(=O)O)C3)cc2)c1CNC(=O)OCc1ccccc1Cl [Example 20] |
| 16 | Cc1noc(-c2ccc(O[C@H]3CCC[C@H](C(=O)O)C3)cn2)c1CNC(=O)OCC1CC1(C)C (stereo partly drawn) [Example 63] |
| 49 | Cc1noc(-c2ccc(O[C@@H]3CCC[C@@H](C(=O)O)C3)cn2)c1CNC(=O)OCc1ccccc1 (single isomer, unassigned) [Example 57] |
| 37 | Cc1nc(-c2onc(C)c2CNC(=O)OCC(C)C)ccc1O[C@H]1CCC[C@H](C(=O)O)C1 [Example 39] |
| 2.77 | Cc1noc(-c2ccc(O[C@H]3CCC[C@H](C(=O)O)C3)cc2)c1CNC(=O)OCc1ccc(Cl)cc1 [Example 12] |
| 84 | Cc1noc(-c2ccc(O[C@H]3CCC[C@H](C(=O)O)C3)cc2)c1NC(=O)O[C@H](C)C1CC1 (single isomer, unassigned) [Example 32] |
| 30 | Cc1noc(-c2ccc(O[C@H]3CCC[C@H](C(=O)O)C3)cn2)c1CNC(=O)OCc1cccc(Cl)c1 [Example 4] |
| 1610 | Cc1noc(-c2ccc(O[C@@H]3CCC[C@@H](C(=O)O)C3)cc2)c1CNC(=O)O[C@@H](C)c1ccccc1 (mixture of isomers) [Example 16] |
| 16 | Cc1noc(-c2ccc(O[C@H]3CCC[C@H](C(=O)O)C3)cn2)c1CNC(=O)OCC1CCC1 [Example 7] |
| 7 | Cc1noc(-c2ccc(O[C@H]3CCC[C@H](C(=O)O)C3)cn2)c1CNC(=O)OCCC(C)(C)C [Example 6] |
| 97 | Cc1noc(-c2ccc(O[C@H]3CCCC(C(=O)O)C3)cc2)c1CNC(=O)OCC1CC1C (mixture of isomers) [Example 14] |
| 33 | CCCCOC(=O)N(C)Cc1c(C)noc1-c1ccc(O[C@H]2CCC[C@H](C(=O)O)C2)cn1 [Example 60] |
